# How the values were obtained:
# [1] = target: KRAS G12D protein level in AsPC-1 cells (Homo sapiens (Human), UniProt P01116, G12D); assay: Western blotting assay in AsPC-1 cells; type: cell-based; settings: 3 uM, 48 h compound treatment, Western blot
# Method: AsPC-1 cell line was used in this study. Cells were maintained in RPMI-1640 supplemented 10% fetal bovine serum (Thermo Fisher), 50 units/mL penicillin and streptomycin (Thermo Fisher) and kept at 37° C. In a humidified atmosphere of 5% CO2 in air. Cells were reinstated from frozen stocks that were laid down within 30 passages from the original cells purchased. 400000 AsPC-1 cells per well in 1 mL culture medium were seed in the 12-well plate for 4 hours. Cells were treated with an appropriate dilution series of compounds. After 48h compound treatment, medium was aspirated, the cells were washed with PBS, and then 30 μL of 1× protein lysis buffer (Cell Signaling Technology) containing protease inhibitors (Merck) and phosphatase inhibitors (Sigma) was added. The cells were lysed, and after centrifugation, the supernatants were quantified by BCA Protein assay Kit (Thermo Fisher). 4× loading Buffer (Thermo Fisher) was added to equal amounts of total protein from each sample and heated at 95° C. for 5 minutes. […]
# [2] = target: KRAS G12D HiBiT in HEK293 KRAS-G12D NanoLuc cell pool (Homo sapiens (Human), UniProt P01116, G12D); assay: KRAS G12D NanoLuc assay; type: cell-based; settings: 24 h compound treatment
# Method: HEK293 KRAS-G12D NanoLuc cell pool was used in this study. The cells were stable expressing KRAS G12D HiBiT and LgBiT. Cells were maintained in DMEM supplemented with 10% fetal bovine serum (Thermo Fisher), 50 units/mL penicillin and streptomycin (Thermo Fisher) and kept at 37° C. in a humidified atmosphere of 5% CO2 in air. Cells were reinstated from frozen stocks that were laid down within 30 passages from the cell pool was constructed. 20000 cells per well were seeded a 96-well White with Clear Flat bottom plate for 4 h. Cells were treated with a 10-point dilution series. The final compound concentration is from 0 to 10 μM. After 24 h compound treatment, added 20 μL of CellTiter-Fluor reagent (Promega) to plates, shook for 2 min, incubated at least 30 min in 37° C. Added 25 μL of NanoGlo Live cell reagent (Promega) to the same plate. shook by mini-shaker for 5 min. Measure Luminescence and Fluorescence (380-400nmEx/505nmEm) signals immediately using a PHERAstar FSX reader (BMG Labtech). DC50 determination was performed by fitting the curve of percent inhibition versus the log of the inhibitor concentration using Excel and GraphPad Prism 8.
structure (smiles),measurement,setting,value
Cc1ncsc1-c1ccc([C@H](C)NC(=O)[C@@H]2C[C@@H](O)CN2C(=O)[C@@H](NC(=O)CCOCCCN2CCC[C@H]2COc2nc3c(c(N4CC5CCC(C4)N5)n2)CCN(c2cccc4cccc(Cl)c24)C3)C(C)(C)C)cc1 [Example 17],KRAS G12D protein level decrease,[1],40%
same,DC50,[2],708 nM
same,Dmax,[2],80%

# — patent US20240092803A1, “BRIDGED COMPOUNDS AS KRAS G12D INHIBITOR AND DEGRADER AND THE USE THEREOF” (BEIGENE SWITZERLAND GMBH, priority 2021, published 2024)
